Patent publication US10934303B2, “Aryl ethene derivative and pharmaceutical composition containing same as active ingredient” (priority 2016, dated 2021)
Read-outs that look alike come from different tables or passages of the source.

Assays:
[1] = 1 μM, 30 minutes, 37° C., NADPH
Experimental: 2) Microsomal Stability Evaluation
(§2) Four liver microsomes (Human, Dog, Rat, Mouse 0.5 mg/ml) with a 0.1 M phosphate buffer solution (pH 7.4), and the arylethene derivative of the present invention were added to a concentration of 1 μM, culturing was performed at 37° C. for 5 minutes in advance, a NADPH regeneration system solution was added thereto, and culturing was performed at 37° C. for 30 minutes. Thereafter, in order to complete the reaction, an acetonitrile solution containing an internal standard material (chlorpropamide) was added thereto, centrifugation (14,000 rpm, 4° C.) was performed for 5 minutes, and a supernatant was injected into a LC-MS/MS system to analyze the substrate drug, thereby evaluating metabolism stability to the arylethene derivative of the present invention.

[2] = 1 μM, 30 minutes, 37° C., NADPH; remark: listed apart in the source
[3] = molecular target: CYP3A4 (Homo sapiens (Human), UniProt P08684); assay: Cytochrome P450 activity inhibition, CYP3A4; format: in vitro ADME; conditions: 10 μM, human liver microsomes, Midazolam substrate
Source text: (§1) 1) Cytochrome P450 (CYP450) Activity Inhibition Evaluation

[4] = molecular target: CYP2C19 (Homo sapiens (Human), UniProt P33261); assay: Cytochrome P450 activity inhibition, CYP2C19; format: in vitro ADME; conditions: 10 μM, human liver microsomes, S-mephenytoin substrate
Source text: as §1

[5] = 1 μM, 30 minutes, 37° C., NADPH; remark: listed apart in the source
Experimental: 2) Microsomal Stability Evaluation
as §2

[6] = 1 μM, 30 minutes, 37° C., NADPH; remark: listed apart in the source
Experimental: 2) Microsomal Stability Evaluation
as §2

[7] = molecular target: CYP2C9 (Homo sapiens (Human), UniProt P11712); assay: Cytochrome P450 activity inhibition, CYP2C9; format: in vitro ADME; conditions: 10 μM, human liver microsomes, Diclofenac substrate
Source text: as §1

[8] = molecular target: CYP2D6 (Homo sapiens (Human), UniProt P10635); assay: Cytochrome P450 activity inhibition, CYP2D6; format: in vitro ADME; conditions: 10 μM, human liver microsomes, Dextromethorphan substrate
Source text: as §1

[9] = molecular target: GST-bound ERR alpha LBD (Homo sapiens (Human), UniProt P11474); conditions: TR-FRET, PGC1a coactivator; read-out: Binding Assay, IC50 ERRα
Experimental: (§3) The arylethene derivative of the present invention was sequentially added to a 384 well plate from a concentration of 10 μM to a final concentration of two-fold dilution. […] After all reagents were added, a reaction was carried out with gentle shaking at 20° C. for 1 hour, and after the reaction, a binding activity was measured by a TR-FRET method.

[10] = molecular target: GST-bound ER alpha ligand-binding domain (LBD) (Homo sapiens (Human), UniProt P03372); assay: biochemical; conditions: TR-FRET, beta-estradiol 4 nM as agonist; read-out: Binding Assay, IC50 ERα
Experimental: as §3

[11] = molecular target: CYP1A2 (Homo sapiens (Human), UniProt P05177); assay: Cytochrome P450 activity inhibition, CYP1A2; format: in vitro ADME; conditions: 10 μM, human liver microsomes, Phenacetin substrate
Source text: as §1

[12] = system: ERRγ; format: cell-based
[13] = in vivo; format: in vivo; conditions: rat; for Cmax: read-out: Cmax
Experimental: An oral administration group fasts the day before.
Blood of each animal is collected at 0 hour.
Into a tail vein of an intravenous administration group (IV), a drug is injected at a dose of 1 mg/kg (syringe).
To an oral administration group (PO), a drug is orally administered at a dose of 10 mg/kg (oral zondec)
After administration, blood of the intravenous administration group was collected through a jugular vein 8 times at 0.08, 0.25, 0.5, 1, 2, 4, 6, and 8 hours. One collected blood amount is 400 to 500 ul.
After administration, blood of the oral administration group was collected through a jugular vein 6 times at 0.25, 0.5, 1, 4, 6 and 8 hours. One collected blood amount is 400 to 500 ul.
Supernatant plasma is collected by a centrifuge.
The supernatant plasma was injected into a LC-MS/MS system and the drug is analyzed.

[14] = molecular target: GST-bound ERR gamma ligand-binding domain (LBD) (Homo sapiens (Human), UniProt P62508); assay: ERRγ binding assay (inverse agonist assay), TR-FRET
Experimental: 1) ERRγ Binding Assay (Inverse Agonist Assay)
as §3

[15] = in vitro; format: in vitro ADME; design: Papp at 5 h: dose or concentration left out as unconfirmed; conditions: PBS pH 7.4, 25° C.; for Permeability Pampa: 5 hours; for Papp at 5 h: PAMPA, read-out: Permeability Pampa
Experimental: 3) Parallel Artificial Membrane Permeability Assay (PAMPA) Evaluation
PAMPA is a method which has been developed for testing cell membrane permeability of a material in a test tube, and has been performed using a lipid tri-layer PVDF membrane available from Corning Gentest (NY, US), the used reagents were all purchased from Sigma (MO, US). First, a test material is diluted in PBS (pH 7.4) to a final concentration of 10 mM, 300 mL of the solution is added to the bottom well of a 96-transwell equipped with a PVDF membrane, and 200 mL of PBS is added to the upper well. Then, a plate is reacted at 25° C. for 5 hours, 20 mL of the solution in each well is transferred to a new container, and 80 mL of acetonitrile containing an internal standard material (4 mM chloropropamide) is added thereto. A concentration of the material in the solution is analyzed using LC-MS/MS (ThermoFisher Scientific, MO, US), and the transmittance of the material is calculated according to the equation reported in the reference document.

[16] = molecular target: hERG channel (Homo sapiens (Human), UniProt Q12809); conditions: read-out: hERG IC50; fluorescence polarization assay
[17] = activity relative to reference compound GSK5182, 10 μM
[18] = TR-FRET, PGC1a coactivator, read-out: Binding Assay, IC50 ERRγ

Sequence of CYP2C9 (P11712 whole entry): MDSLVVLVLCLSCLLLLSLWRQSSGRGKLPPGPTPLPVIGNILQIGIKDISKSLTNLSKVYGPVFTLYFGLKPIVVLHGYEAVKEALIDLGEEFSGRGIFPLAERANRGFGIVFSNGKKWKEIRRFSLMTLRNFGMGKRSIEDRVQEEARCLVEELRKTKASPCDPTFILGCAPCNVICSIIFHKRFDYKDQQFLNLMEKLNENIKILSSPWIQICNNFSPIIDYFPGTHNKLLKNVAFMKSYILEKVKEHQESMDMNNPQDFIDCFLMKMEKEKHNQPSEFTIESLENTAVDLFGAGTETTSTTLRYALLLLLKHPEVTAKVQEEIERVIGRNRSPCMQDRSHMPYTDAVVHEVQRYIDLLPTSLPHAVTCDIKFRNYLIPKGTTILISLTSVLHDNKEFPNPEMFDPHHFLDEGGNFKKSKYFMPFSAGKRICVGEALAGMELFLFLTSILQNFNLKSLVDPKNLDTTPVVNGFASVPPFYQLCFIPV
Sequence of CYP2D6 (P10635 whole entry): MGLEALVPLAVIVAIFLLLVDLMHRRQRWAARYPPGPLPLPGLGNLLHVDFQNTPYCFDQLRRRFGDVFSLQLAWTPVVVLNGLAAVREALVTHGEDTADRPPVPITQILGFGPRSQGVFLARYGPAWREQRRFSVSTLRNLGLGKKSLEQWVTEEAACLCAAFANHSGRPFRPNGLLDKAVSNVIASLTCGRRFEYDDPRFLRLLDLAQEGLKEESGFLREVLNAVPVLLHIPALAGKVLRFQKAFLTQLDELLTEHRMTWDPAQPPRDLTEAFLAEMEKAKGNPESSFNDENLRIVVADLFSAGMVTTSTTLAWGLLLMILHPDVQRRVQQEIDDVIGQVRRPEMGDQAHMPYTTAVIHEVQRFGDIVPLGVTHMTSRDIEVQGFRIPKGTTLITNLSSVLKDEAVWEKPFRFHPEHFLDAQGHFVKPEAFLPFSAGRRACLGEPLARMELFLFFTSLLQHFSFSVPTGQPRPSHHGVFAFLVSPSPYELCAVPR
Sequence of GST-bound ER alpha ligand-binding domain (LBD) (P03372 whole entry, looked up, the tested form may be a part): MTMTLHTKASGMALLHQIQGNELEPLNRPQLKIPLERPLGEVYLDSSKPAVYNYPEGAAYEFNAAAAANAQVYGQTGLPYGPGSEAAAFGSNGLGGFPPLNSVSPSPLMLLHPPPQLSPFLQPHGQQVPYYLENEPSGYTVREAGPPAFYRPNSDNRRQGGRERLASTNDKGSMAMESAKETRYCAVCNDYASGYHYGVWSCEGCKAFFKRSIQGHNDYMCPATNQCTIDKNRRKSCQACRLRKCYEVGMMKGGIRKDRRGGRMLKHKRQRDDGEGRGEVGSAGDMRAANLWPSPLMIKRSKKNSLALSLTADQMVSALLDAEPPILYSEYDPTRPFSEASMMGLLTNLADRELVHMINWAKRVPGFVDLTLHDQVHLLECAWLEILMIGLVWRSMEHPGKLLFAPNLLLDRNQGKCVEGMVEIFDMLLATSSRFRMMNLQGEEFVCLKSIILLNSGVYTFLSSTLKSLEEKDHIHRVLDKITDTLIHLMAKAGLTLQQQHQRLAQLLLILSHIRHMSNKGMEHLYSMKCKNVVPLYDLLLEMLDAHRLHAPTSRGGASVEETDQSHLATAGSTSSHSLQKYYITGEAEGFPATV
Sequence of CYP3A4 (P08684 whole entry): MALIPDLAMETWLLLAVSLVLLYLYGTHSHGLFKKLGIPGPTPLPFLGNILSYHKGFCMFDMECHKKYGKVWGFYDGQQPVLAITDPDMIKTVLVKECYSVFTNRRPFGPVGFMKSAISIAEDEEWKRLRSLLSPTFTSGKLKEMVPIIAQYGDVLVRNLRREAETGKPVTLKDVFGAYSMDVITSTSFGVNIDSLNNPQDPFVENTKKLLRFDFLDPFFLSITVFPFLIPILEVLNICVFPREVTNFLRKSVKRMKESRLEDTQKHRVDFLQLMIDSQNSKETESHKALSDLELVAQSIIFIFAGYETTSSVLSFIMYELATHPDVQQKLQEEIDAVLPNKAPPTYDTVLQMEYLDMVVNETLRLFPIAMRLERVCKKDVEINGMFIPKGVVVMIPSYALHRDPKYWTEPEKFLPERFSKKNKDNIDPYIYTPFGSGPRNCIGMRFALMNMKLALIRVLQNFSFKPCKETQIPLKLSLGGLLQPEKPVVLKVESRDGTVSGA
Sequence of CYP1A2 (P05177 whole entry): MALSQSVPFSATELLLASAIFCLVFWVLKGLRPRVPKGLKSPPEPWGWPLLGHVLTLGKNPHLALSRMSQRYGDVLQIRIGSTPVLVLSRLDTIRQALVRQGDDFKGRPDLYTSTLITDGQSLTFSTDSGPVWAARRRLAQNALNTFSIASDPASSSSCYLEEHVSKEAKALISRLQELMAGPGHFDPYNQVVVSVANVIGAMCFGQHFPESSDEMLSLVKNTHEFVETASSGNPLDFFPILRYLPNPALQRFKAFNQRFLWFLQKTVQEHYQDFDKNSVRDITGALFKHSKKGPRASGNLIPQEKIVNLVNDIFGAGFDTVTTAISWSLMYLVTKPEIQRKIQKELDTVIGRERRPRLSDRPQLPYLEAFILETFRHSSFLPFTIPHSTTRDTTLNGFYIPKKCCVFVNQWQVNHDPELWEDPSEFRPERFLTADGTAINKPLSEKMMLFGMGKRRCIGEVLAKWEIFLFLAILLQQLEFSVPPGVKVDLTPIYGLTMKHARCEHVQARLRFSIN
Sequence of GST-bound ERR gamma ligand-binding domain (LBD) (P62508 233-457): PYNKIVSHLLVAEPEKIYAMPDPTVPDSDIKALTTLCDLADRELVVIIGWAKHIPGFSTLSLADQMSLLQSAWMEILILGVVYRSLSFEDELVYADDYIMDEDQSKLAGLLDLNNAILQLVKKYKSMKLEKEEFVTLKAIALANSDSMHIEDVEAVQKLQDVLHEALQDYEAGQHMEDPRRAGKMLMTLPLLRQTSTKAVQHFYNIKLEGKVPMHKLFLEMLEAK
Sequence of CYP2C19 (P33261 whole entry): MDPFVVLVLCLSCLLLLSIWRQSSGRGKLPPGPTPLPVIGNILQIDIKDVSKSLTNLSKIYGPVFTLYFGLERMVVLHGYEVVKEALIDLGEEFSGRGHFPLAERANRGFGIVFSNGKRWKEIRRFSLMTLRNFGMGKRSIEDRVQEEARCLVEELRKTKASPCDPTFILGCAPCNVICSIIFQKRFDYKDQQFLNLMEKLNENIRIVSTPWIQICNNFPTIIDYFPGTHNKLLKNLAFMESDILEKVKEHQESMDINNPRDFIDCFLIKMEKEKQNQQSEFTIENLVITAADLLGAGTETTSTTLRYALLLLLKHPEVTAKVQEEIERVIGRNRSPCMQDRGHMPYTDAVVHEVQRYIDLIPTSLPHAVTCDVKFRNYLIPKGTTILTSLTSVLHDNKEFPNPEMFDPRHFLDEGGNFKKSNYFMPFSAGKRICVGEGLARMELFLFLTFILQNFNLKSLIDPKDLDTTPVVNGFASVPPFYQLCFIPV
Sequence of GST-bound ERR alpha LBD (P11474 193-421): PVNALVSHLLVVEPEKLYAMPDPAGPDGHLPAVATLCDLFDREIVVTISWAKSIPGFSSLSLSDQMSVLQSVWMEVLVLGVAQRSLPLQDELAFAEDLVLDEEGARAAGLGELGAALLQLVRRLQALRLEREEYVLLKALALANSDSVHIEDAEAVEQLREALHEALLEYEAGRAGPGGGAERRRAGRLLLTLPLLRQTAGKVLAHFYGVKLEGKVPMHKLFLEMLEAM

| Structure (SMILES) | MS(Microsomal Stability) (%) dog [1] | MS(Microsomal Stability) (%) rat [2] | CYP inhibition (% of control) 3A4 [3] | CYP inhibition (% of control) 2C19 [4] | MS(Microsomal Stability) (%) mouse [5] | MS(Microsomal Stability) (%) human [6] | CYP inhibition (% of control) 2C9 [7] | CYP inhibition (% of control) 2D6 [8] | IC50 [9] | IC50 [10] | CYP inhibition (% of control) 1A2 [11] | Functional Assay at 10 μM (% of control), Cpds ([12]; 10 μM, 24 hours, AD293) | Functional Assay, Cpds/Ref 5182 [12, 17] | IC50 [14, 18] | Permeability Pampa [15] | also measured |
| --- | --- | --- | --- | --- | --- | --- | --- | --- | --- | --- | --- | --- | --- | --- | --- | --- |
| CC(C)N1CCC(c2ccc(/C(=C(/CCCO)c3ccccc3)c3ccc(O)cc3)cc2)CC1 [Compound 22k] | 59.6% | 69.0% | 74.7 % of control | >100 % of control | 23.4% | 59.7% | 97 % of control | 73.7 % of control | > 10 µM | 1.38 µM | >100 % of control | 0.77 % of control | 0.83 | – | – | – |
| CCN1CCN(c2ccc(/C(=C(/CCCO)c3ccccc3)c3ccc(C)cc3)cc2)CC1 [Compound 18j] | 58.0% | 62.8% | 77.6 % of control | 74 % of control | 54.9% | 67.9% | 87 % of control | 86.6 % of control | > 10 µM | > 10 µM | >100 % of control | 3.28 % of control | 1.21 | 0.025 µM | 1.61 10^−6 cm/s | AUCINF ([13]; IV, 1 mg/kg): 0.60 μMh; AUCall ([13]; IV, 1 mg/kg): 0.55 μMh; Cl(observed)/F ([13]; IV, 1 mg/kg): 59 mL/min/kg; Vss ([13]; IV, 1 mg/kg): 9.8 L/kg; t1/2 ([13]; IV, 1 mg/kg): 3.2 h; AUCINF ([13]; PO, 10 mg/kg): 1.61 μMh; AUCall ([13]; PO, 10 mg/kg): 1.07 μMh; BA ([13]; PO, 10 mg/kg): 19.6%; Tmax ([13]; PO, 10 mg/kg): 3 h; Cmax ([13]; PO, 10 mg/kg): 210 nM |
| CC(C)N1CCN(c2ccc(/C(=C(/CCCO)c3ccccc3)c3ccc(Br)cc3)cc2)CC1 [Compound 18h] | 64.4% | 74.2% | 64.5 % of control | 86.3 % of control | 48.5% | >100% | 96.9 % of control | 71.5 % of control | > 10 µM | > 10 µM | 93.5 % of control | 4.47 % of control | 1.09 | 0.032 µM | 0.37 10^−6 cm/s | – |
| CC(C)N1CCN(c2ccc(/C(=C(/CCCO)c3ccccc3)c3ccc(NS(C)(=O)=O)cc3)cc2)CC1 [Compound 27a, (E)-N-(4-(5-hydroxy-1-(4-(4-isopropylpiperazin-1-yl)phenyl)-2-phenylpent-1-en-1-yl)phenyl)methanesulfonamide] | 50.3% | 65.0% | – | – | 32.7% | 66.2% | – | – | – | – | – | – | – | – | – | IC50 [14]: 0.026 µM; Functional Assay at 10 μM (% of control), Cpds [12]: 2.1 % of control; Functional Assay, Cpds/Ref 5182 [12]: 0.77; Papp at 5 h [15]: 2.22 ×10⁻⁶ cm/s |
| OCCC/C(=C(\c1ccc(O)cc1)c1ccc(N2CCN(C3CCC3)CC2)cc1)c1ccccc1 [Compound 22q] | 43.8% | 67.6% | 81 % of control | 92.8 % of control | 17.6% | 63.7% | 77.7 % of control | 77.6 % of control | > 10 µM | 1.66 µM | 99.9 % of control | – | – | 0.053 µM | 0.77 10^−6 cm/s | – |
| OCCC/C(=C(\c1ccc(O)cc1)c1ccc(N2CCN(C3CCCCC3)CC2)cc1)c1ccccc1 [Compound 22p] | 77.7% | 75.3% | 90.6 % of control | 61.5 % of control | 40.4% | 72.3% | 81.8 % of control | 79.6 % of control | 9.7 µM | 2.12 µM | 88.1 % of control | – | – | 0.099 µM | 0.2 10^−6 cm/s | – |
| CN1CCC[C@H]1COc1ccc(/C(=C(/CCCO)c2ccccc2)c2ccc(Br)cc2)cc1 [Compound 13b] | – | 66.2% | – | – | – | 61.2% | – | – | – | – | – | – | – | 0.064 µM | – | Functional Assay at 10 μM (% of control), Cpds [12]: 1.5 % of control; Functional Assay, Cpds/Ref 5182 [12]: 0.48; Papp at 5 h [15]: 0.93 ×10⁻⁶ cm/s |
| Cc1ccc(/C(=C(\CCCO)c2ccccc2)c2ccc(C3CNC3)cc2)cc1 [Compound 20d] | – | 54% | – | – | 11.3% | 83% | – | – | – | – | – | – | – | – | 0.23 10^−6 cm/s | IC50 [16]: 15 µM |
| OCCC/C(=C(\c1ccc(O)cc1)c1ccc(OCCN2CCCC2)cc1)c1ccccc1 [Compound 6e] | – | – | – | – | – | – | – | – | > 10 µM | 0.408 µM | – | 5.61 % of control | – | 0.067 µM | – | Functional Assay, Cpds/Ref 5182 [12]: 1.82 |
| CC(C)N1CCN(c2ccc(/C(=C(/CCCO)c3ccccc3)c3ccc(Br)cc3)cc2)CC1 [Compound 18e] | – | – | 84 % of control | 84.6 % of control | – | – | 91.3 % of control | >100 % of control | > 10 µM | > 10 µM | >100 % of control | 2.6 % of control | 0.89 | – | 1.11 10^−6 cm/s | AUCINF ([13]; IV, 1 mg/kg): 0.06 μMh; AUCall ([13]; IV, 1 mg/kg): 0.06 μMh; Vss ([13]; IV, 1 mg/kg): 39.1 L/kg; t1/2 ([13]; IV, 1 mg/kg): 0.8 h; AUCINF ([13]; PO, 10 mg/kg): 0.09 μMh; AUCall ([13]; PO, 10 mg/kg): 0.07 μMh; BA ([13]; PO, 10 mg/kg): 11.5%; Tmax ([13]; PO, 10 mg/kg): 2.8 h; Cmax ([13]; PO, 10 mg/kg): 10 nM |
| CN1CCC[C@@H]1CCOc1ccc(/C(=C(/CCCO)c2ccccc2)c2ccc(O)cc2)cc1 [Compound 6k] | – | – | – | – | – | – | – | – | – | – | – | 2.5 % of control | 0.79 | 0.026 µM | – | Papp at 5 h [15]: 0.12 ×10⁻⁶ cm/s |
| OCCC/C(=C(\c1ccc(O)cc1)c1ccc(C2CN(C3CC3)C2)cc1)c1ccccc1 [Compound 22d] | – | 60.2% | 66.1 % of control | >100 % of control | – | 57.6% | >100 % of control | 82.5 % of control | – | – | >100 % of control | – | – | – | 0.38 10^−6 cm/s | IC50 [16]: 6 µM |
| CN1CCC[C@H]1CCOc1ccc(/C(=C(/CCCO)c2ccccc2)c2ccc(O)cc2)cc1 [Compound 6j] | – | – | – | – | – | – | – | – | – | – | – | 2.44 % of control | 0.77 | 0.034 µM | – | – |
